Laboratory results as given in patent US11000033B2, “Ketone or oxime compound, and herbicide” (NISSAN CHEMICAL CORPORATION, priority 2014, dated 2021).

Legend:
Assay type in all cases: in vivo
Alopecurus myosuroides = experiment: Test Example 5: herbicidal effect by foliage application, plastic box (symbol J); conditions: 320 g/ha, 3 weeks after application
Summary of the method: (§1)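 Herbicide, formulated as an emulsion and diluted in water, is sprayed onto the aerial parts of 14-day seedlings. These were grown at 25° C. to 30° C. in sterilized diluvial soil; effects are graded after 3 weeks.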

beet [1] = experiment: Test Example 4: effect on crop by soil treatment (symbol f); conditions: application herbicide amount 320 g/ha
Summary of the method: (§2)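 Crop seed is sown in spots together with several weed species in a box of sterilized diluvial soil. It is covered by about 1.5 cm of soil and kept in a greenhouse held between 25° C. and 30° C.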

transplanted rice plant = experiment: Test Example 1: effect on crop, application before weed generation in submerged conditions (symbol a); conditions: application herbicide amount 320 g/ha
Summary of the method: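 Rice at 2.5 leaf stage transplanted into submerged soil (4 cm depth) sown with three weed species; herbicide applied before weed emergence.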

soybean [2] = experiment: Test Example 4: effect on crop by soil treatment (symbol d); conditions: application herbicide amount 320 g/ha
Summary of the method: as §2

corn = experiment: Test Example 4: effect on crop by soil treatment (symbol c); conditions: application herbicide amount 320 g/ha
Summary of the method: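 Plants are raised in a greenhouse (25° C. to 30° C.) from spot-sown seed, which sits under about 1.5 cm of sterilized diluvial soil in a box shared with weed species.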

[3] = system: Echinochloa crus-galli var. crus-galli; experiment: Test Example 3: herbicidal effect by foliage application, Wagner pot (symbol H); conditions: application herbicide amount 320 g/ha
Summary of the method: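 Post-emergence, paddy-type test: seedlings 14 d old in shallow-flooded (0.1–0.5 cm) alluvial soil, 25–30 °C greenhouse. Emulsion diluted to target rate, sprayed on leaves. Read-out: visual effect on each species at 3 weeks, per set criteria.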

Abutilon theophrasti = experiment: Test Example 5: herbicidal effect by foliage application, plastic box (symbol M); conditions: 320 g/ha, 3 weeks after application
Summary of the method: as §1

soybean [4] = experiment: Test Example 5: effect on crop by foliage application, plastic box (symbol d); conditions: 320 g/ha, 3 weeks after application
Summary of the method: (§3)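 Box culture: sterile diluvial soil, seeds spot-sown, ~1.5 cm cover, raised under glass at 25–30° C.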

rice plant = experiment: Test Example 5: effect on crop by foliage application, plastic box (symbol b); conditions: 320 g/ha, 3 weeks after application
Summary of the method: as §3

Galium spurium = experiment: Test Example 5: herbicidal effect by foliage application, plastic box (symbol Q); conditions: 320 g/ha, 3 weeks after application
Summary of the method: as §1

wheat = experiment: Test Example 5: effect on crop by foliage application, plastic box (symbol e); conditions: 320 g/ha, 3 weeks after application
Summary of the method: as §3

[5] = system: Echinochloa oryzacola Vasing.; experiment: Test Example 1: herbicidal activity, application before weed generation in submerged conditions (symbol A); conditions: application herbicide amount 320 g/ha
Summary of the method: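 Pre-emergence, paddy conditions: emulsifiable formulation diluted in water, dosed onto floodwater (4 cm depth) on sowing day. Alluvial soil; weeds sown mixed; rice transplanted at 2.5-leaf stage. Greenhouse 25–30 °C, 3 wk. Score 0–5 (5 = ≥90% kill, 0 = ≤5%).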

beet [6] = experiment: Test Example 5: effect on crop by foliage application, plastic box (symbol f); conditions: 320 g/ha, 3 weeks after application
Summary of the method: as §3

Stellaria media = experiment: Test Example 4: herbicidal effect by soil treatment (symbol P); conditions: application herbicide amount 320 g/ha
Summary of the method: (§4)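 Seeds were sown in sterilized diluvial soil, covered with about 1.5 cm of soil, and the soil surface was sprayed with a water-diluted emulsion of the compound at a predetermined rate. Plants grew in a greenhouse at 25° C. to 30° C.; effects were scored visually 3 weeks after application.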

Veronica persica = experiment: Test Example 4: herbicidal effect by soil treatment (symbol R); conditions: application herbicide amount 320 g/ha
Summary of the method: as §4

| Compound | J: Alopecurus myosuroides, herbicidal effect (criteria of Test Example 1) (Alopecurus myosuroides) | f: beet, effect on crop grade (beet [1]) | Effect grade on crop, a: transplanted rice plant (transplanted rice plant) | d: soybean, effect on crop grade (soybean [2]) | c: corn, effect on crop grade (corn) | herbicidal effect on H (Echinochloa crus-galli var. crus-galli), grade 0-5 [3] | M: Abutilon theophrasti, herbicidal effect (criteria of Test Example 1) (Abutilon theophrasti) | d: soybean, effect on crop (criteria of Test Example 1) (soybean [4]) | b: directly sowed rice plant, effect on crop (criteria of Test Example 1) (rice plant) | Q: Galium spurium, herbicidal effect (criteria of Test Example 1) (Galium spurium) | e: wheat, effect on crop (criteria of Test Example 1) (wheat) | Herbicidal effect grade, A: Echinochloa oryzacola Vasing. [5] | f: beet, effect on crop (criteria of Test Example 1) (beet [6]) | P: Stellaria media, herbicidal effect grade (Stellaria media) | R: Veronica persica, herbicidal effect grade (Veronica persica) |
| --- | --- | --- | --- | --- | --- | --- | --- | --- | --- | --- | --- | --- | --- | --- | --- |
| CON=C(C)CC1CC(OC(=O)COc2ccccc2)=C(c2c(C)cc(-c3ccc(Cl)cc3)cc2C)C1=O (mixture of isomers) [6-061] | 5 (Herbicidal ratio of 90% or more (almost completely withered)) | 0 (Herbicidal ratio of 5% or lower (almost no effect)) | 5 (Herbicidal ratio of 90% or more (almost completely withered)) | 0 (Herbicidal ratio of 5% or lower (almost no effect)) | 0 (Herbicidal ratio of 5% or lower (almost no effect)) | 5 (Herbicidal ratio of 90% or more (almost completely withered)) | 4 (Herbicidal ratio of 70% or higher and lower than 90%) | 3 (Herbicidal ratio of 40% or higher and lower than 70%) | 5 (Herbicidal ratio of 90% or more (almost completely withered)) | 3 (Herbicidal ratio of 40% or higher and lower than 70%) | 5 (Herbicidal ratio of 90% or more (almost completely withered)) | 5 (Herbicidal ratio of 90% or more (almost completely withered)) | 3 (Herbicidal ratio of 40% or higher and lower than 70%) | 3 (Herbicidal ratio of 40% or higher and lower than 70%) | 4 (Herbicidal ratio of 70% or higher and lower than 90%) |
| CON=C(C)CC1CC(O)=C(c2c(C)cc(C(C)=NOC)cc2C)C1=O (stereo not drawn) [6-065] | 5 (Herbicidal ratio of 90% or more (almost completely withered)) | 2 (Herbicidal ratio of 20% or higher and lower than 40%) | 4 (Herbicidal ratio of 70% or higher and lower than 90%) | 0 (Herbicidal ratio of 5% or lower (almost no effect)) | 5 (Herbicidal ratio of 90% or more (almost completely withered)) | 5 (Herbicidal ratio of 90% or more (almost completely withered)) | 2 (Herbicidal ratio of 20% or higher and lower than 40%) | 1 (Herbicidal ratio of 5% or higher and lower than 20%) | 5 (Herbicidal ratio of 90% or more (almost completely withered)) | 3 (Herbicidal ratio of 40% or higher and lower than 70%) | 5 (Herbicidal ratio of 90% or more (almost completely withered)) | 4 (Herbicidal ratio of 70% or higher and lower than 90%) | 3 (Herbicidal ratio of 40% or higher and lower than 70%) | 4 (Herbicidal ratio of 70% or higher and lower than 90%) | 3 (Herbicidal ratio of 40% or higher and lower than 70%) |
